Test results published in patent publication US11970435B2, “Taste-modified creatine salts, compounds, compositions and uses thereof” (Augusta University Research Institute, Inc., priority 2017, dated 2024).
Several values for one entry are separate records, joined by “and”; a condition that tells them apart may be missing. Equal values may be shown once. Where a name gives a salt, the structure may show the parent alone.

Key:
[1] = Stability study: decomposition of creatine salts to creatinine in water, LC-MS/MS; assay type: physicochemical; conditions: for Creatinine, % / Salt, %: distilled water, 20° C.; for decomposition: at first, time intervals of 8 hours, water; for Formation of creatinine: deionized water, room temperature, period of 333 hours
Procedure: Mobile phase was 50% water and 50% acetonitrile with 0.1% formic acid in each. Column was a 2 mm×15 cm C18 column with 3 um particles. Flow rate 0.2 mL/min.
Samples were dissolved in distilled water and kept at 20° C. Mass spectrometry used a Waters Premier XE triple quadrupole mass spectrometer. Liquid chromatography used a Waters Acquity UPLC system.
Experiment was double checked with two simultaneous injections of each sample in various time intervals.

[2] = isolated product

## CN(CC(=O)O)C(=N)N.Cl [Salt 4, creatine hydrochloride]
[1]; 0 Hrs, hydrochloride
  Creatinine, %: 1.8% and 1.7%
  Salt, %: 98.2% and 98.3%
[1]; 8 Hrs
  Creatinine, %: 2.5%
  Salt, %: 97.5%
[1]; 16 Hrs
  Creatinine, %: 2.4%
  Salt, %: 97.6%
[1]; 24 Hrs
  Creatinine, %: 2.5%
  Salt, %: 97.5%
[1]; 32 Hrs, hydrochloride
  Creatinine, %: 2.4% and 2.5%
  Salt, %: 97.6% and 97.5%
[1]; 40 Hrs, hydrochloride
  Creatinine, %: 2.4% and 2.5%
  Salt, %: 97.6% and 97.5%
[1]; 48 Hrs
  Creatinine, %: 2.5%
  Salt, %: 97.5%
[1]; 56 Hrs, hydrochloride
  Creatinine, %: 2.5% and 2.4%
  Salt, %: 97.5% and 97.6%
[1]; 64 Hrs
  Creatinine, %: 2.5%
  Salt, %: 97.5%
[1]; 72 Hrs, hydrochloride
  Creatinine, %: 2.5% and 2.6%
  Salt, %: 97.5% and 97.4%
[1]; 138 Hrs, hydrochloride
  Creatinine, %: 3.0% and 2.8%
  Salt, %: 97.0% and 97.2%
[1]; 166 Hrs
  Creatinine, %: 3.0%
  Salt, %: 97.0%
[1]; 190 Hrs
  Creatinine, %: 3.0%
  Salt, %: 97.0%
[1]; 214 Hrs, hydrochloride
  Creatinine, %: 3.1% and 3.3%
  Salt, %: 96.9% and 96.7%
[1]; 240 Hrs, hydrochloride
  Creatinine, %: 3.0% and 3.3%
  Salt, %: 97.0% and 96.7%
[1]; 287 Hrs, hydrochloride
  Creatinine, %: 3.2% and 3.5%
  Salt, %: 96.8% and 96.5%
[1]; 310 Hrs, hydrochloride
  Creatinine, %: 3.3% and 3.6%
  Salt, %: 96.7% and 96.4%
[1]; 333 Hrs, hydrochloride
  Creatinine, %: 3.6% and 3.5%
  Salt, %: 96.4% and 96.5%
[1]
  decomposition: < 2.5%
  Formation of creatinine: ≤ 3.6%

## C[C@H](CCC(=O)NCCS(=O)(=O)O)[C@H]1CC[C@H]2[C@@H]3[C@H](O)C[C@@H]4C[C@H](O)CC[C@]4(C)[C@H]3C[C@H](O)[C@]12C [Salt 26, Amino((2-ethoxy-2-oxoethyl)(methyl)amino)methaniminium 2-((R)-4-((3R,5S, 7R, 8R,9S,10S,12S,13R,14S,17R)-3,7,12-trihydroxy-10,13-dimethylhexadecahydro-1H-cyclopenta[a]phenanthren-17-yl)pentanamido)ethane-1-sulfonate]
[2]
  solubility in organic solvents and water: readily soluble

## Amino((carboxymethyl)(methyl)amino)methaniminium 6-methyl-4-oxo-4H-1,2,3-oxathiazin-3-ide 2,2-dioxide [Salt 21a]
[1]; 0 Hrs
  Creatinine, %: 0.4%
  Salt, %: 99.6%
[1]; 8 Hrs
  Creatinine, %: 0.4%
  Salt, %: 99.6%
[1]; 16 Hrs
  Creatinine, %: 0.4%
  Salt, %: 99.6%
[1]; 24 Hrs
  Creatinine, %: 0.5%
  Salt, %: 99.5%
[1]; 32 Hrs
  Creatinine, %: 0.5% and 0.4%
  Salt, %: 99.5% and 99.6%
[1]; 40 Hrs
  Creatinine, %: 0.5%
  Salt, %: 99.5%
[1]; 48 Hrs
  Creatinine, %: 0.5%
  Salt, %: 99.5%
[1]; 56 Hrs
  Creatinine, %: 0.5%
  Salt, %: 99.5%
[1]; 64 Hrs
  Creatinine, %: 0.5%
  Salt, %: 99.5%
[1]; 72 Hrs
  Creatinine, %: 0.5%
  Salt, %: 99.5%
[1]; 138 Hrs
  Creatinine, %: 0.6%
  Salt, %: 99.4%
[1]; 166 Hrs
  Creatinine, %: 0.7%
  Salt, %: 99.3%
[1]; 190 Hrs
  Creatinine, %: 0.7%
  Salt, %: 99.3%
[1]; 214 Hrs
  Creatinine, %: 0.8% and 0.7%
  Salt, %: 99.2% and 99.3%
[1]; 240 Hrs
  Creatinine, %: 0.8%
  Salt, %: 99.2%
[1]; 287 Hrs
  Creatinine, %: 0.9%
  Salt, %: 99.1%
[1]; 310 Hrs
  Creatinine, %: 0.9%
  Salt, %: 99.1%
[1]; 333 Hrs
  Creatinine, %: 1.0%
  Salt, %: 99.0%
[1]
  decomposition: under 0.5%
  Formation of creatinine: ≤ 1%
